Tests used:
[1] = system: MMTV promoter; test: MMTV agonist assay in A549 MMTV cells; format: cell-based; conditions: Homo sapiens, A549, 6 h, >85% = full agonist, >20% and <85% = partial or efficacy selective agonist, read-out: average maximum asymptote in the MMTV agonist assay
Summary of the method: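 A549 cells stably carrying an MMTV promoter-driven renilla luciferase reporter were exposed to compound for 6 h at 37 °C in DMEM with 10% FCS and 25 mM HEPES. Luminescence read after renilla substrate addition; pEC50 and maximum asymptote estimated from dose-response curves.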

[2] = target: T1, glucocorticoid receptor (Homo sapiens, UniProt P04150); test: Glucocorticoid receptor binding assay (fluorescence polarisation); conditions: competition with Alexa 555 fluorescently-labelled dexamethasone derivative, full length glucocorticoid receptor; read-out: glucocorticoid binding pIC50 (converted)
T1 construct: a partially purified full length glucocorticoid receptor
T1 sequence (P04150 1-777): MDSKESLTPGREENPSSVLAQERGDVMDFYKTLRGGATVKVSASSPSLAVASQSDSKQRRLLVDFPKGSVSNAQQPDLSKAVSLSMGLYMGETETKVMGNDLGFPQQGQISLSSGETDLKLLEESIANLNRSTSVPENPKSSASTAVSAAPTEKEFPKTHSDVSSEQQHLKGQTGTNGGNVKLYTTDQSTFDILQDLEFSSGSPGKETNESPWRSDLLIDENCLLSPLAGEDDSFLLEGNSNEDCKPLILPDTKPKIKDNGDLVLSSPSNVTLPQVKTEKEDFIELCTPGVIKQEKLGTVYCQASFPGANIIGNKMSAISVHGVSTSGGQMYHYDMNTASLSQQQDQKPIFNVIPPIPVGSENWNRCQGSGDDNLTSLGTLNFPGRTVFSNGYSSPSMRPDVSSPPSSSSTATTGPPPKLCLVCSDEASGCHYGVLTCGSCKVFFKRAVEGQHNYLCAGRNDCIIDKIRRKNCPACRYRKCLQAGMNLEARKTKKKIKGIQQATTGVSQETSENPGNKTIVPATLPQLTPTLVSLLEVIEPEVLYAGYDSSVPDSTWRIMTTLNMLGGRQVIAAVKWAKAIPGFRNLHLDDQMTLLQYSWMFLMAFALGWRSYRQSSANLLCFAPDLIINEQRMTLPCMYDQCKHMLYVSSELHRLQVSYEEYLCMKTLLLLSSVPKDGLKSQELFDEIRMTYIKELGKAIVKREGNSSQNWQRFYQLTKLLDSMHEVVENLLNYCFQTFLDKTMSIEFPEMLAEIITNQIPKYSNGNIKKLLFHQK
Summary of the method: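 Compounds in DMSO incubated with fluorescent dexamethasone and partially purified full-length GR plus stabilising buffer components, 2 hrs at room temperature in the dark. Displacement read as decrease in fluorescence polarisation; pIC50 estimated from dose-response curves.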

[3] = target: T2, progesterone receptor (Homo sapiens, UniProt P06401); test: Assay for progesterone receptor activity (CV-1 cells, PRb-BacMam/MMTV-BacMam); format: cell-based; conditions: CV-1 cells transduced with PRb-BacMam and MMTV-BacMam; read-out: pEC50 progesterone receptor activity (converted)
T2 construct: expressed in transfected cells; host or cells: CV-1 cells transduced with PRb-BacMam and MMTV-BacMam
T2 sequence (P06401 1-933): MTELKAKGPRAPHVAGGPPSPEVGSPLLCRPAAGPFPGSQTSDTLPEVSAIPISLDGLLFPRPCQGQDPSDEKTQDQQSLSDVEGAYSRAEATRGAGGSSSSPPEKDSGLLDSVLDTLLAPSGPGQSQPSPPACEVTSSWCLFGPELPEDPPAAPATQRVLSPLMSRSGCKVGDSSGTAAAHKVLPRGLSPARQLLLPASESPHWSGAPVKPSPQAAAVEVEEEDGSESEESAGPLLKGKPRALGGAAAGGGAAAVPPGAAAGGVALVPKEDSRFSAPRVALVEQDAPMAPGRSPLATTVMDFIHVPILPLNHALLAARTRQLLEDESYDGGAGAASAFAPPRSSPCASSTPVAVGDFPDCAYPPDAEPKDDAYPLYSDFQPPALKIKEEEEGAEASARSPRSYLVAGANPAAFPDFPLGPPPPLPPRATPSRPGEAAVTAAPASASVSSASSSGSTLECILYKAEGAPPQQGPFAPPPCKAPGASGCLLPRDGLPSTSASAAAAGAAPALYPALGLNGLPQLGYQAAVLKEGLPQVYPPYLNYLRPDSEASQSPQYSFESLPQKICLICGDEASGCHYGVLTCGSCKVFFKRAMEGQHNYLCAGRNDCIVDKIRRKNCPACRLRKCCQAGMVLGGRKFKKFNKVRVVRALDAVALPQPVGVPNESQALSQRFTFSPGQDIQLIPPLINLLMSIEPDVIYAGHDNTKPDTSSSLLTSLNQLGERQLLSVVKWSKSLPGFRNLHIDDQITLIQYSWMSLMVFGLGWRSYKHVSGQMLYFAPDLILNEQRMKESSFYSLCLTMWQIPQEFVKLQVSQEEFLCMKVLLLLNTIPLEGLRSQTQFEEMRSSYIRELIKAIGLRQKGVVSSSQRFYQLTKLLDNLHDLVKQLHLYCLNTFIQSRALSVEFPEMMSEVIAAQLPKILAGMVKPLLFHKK
Summary of the method: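 CV-1 cells co-transduced with PRb-BacMam and MMTV-BacMam (10% each), seeded onto compounds in DMEM with 10% serum. After 24 h, luminescence was read with Steadylite. pEC50 values were estimated from dose-response curves.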

Row | Structure (SMILES) | Emax [1] [%] | IC50 [2] [nM] | EC50 [3] [nM]
1 | CCN(CC(O)(CNC(=O)c1cnn(-c2ccc(F)cc2)c1N)C(F)(F)F)C(=O)c1c(Cl)cccc1Br (racemic) [Example 24 (racemic), 5-amino-N-(2-{[[(2-bromo-6-chlorophenyl)carbonyl](ethyl)amino]methyl}-3,3,3-trifluoro-2-hydroxypropyl)-1-(4-fluorophenyl)-1H-pyrazole-4-carboxamide] | > 85 | ≤ 316 | > 1000
2 | CCN(CC(O)(CNC(=O)c1cnn(-c2ccc(F)cc2)c1N)C(F)(F)F)C(=O)c1c(Cl)cccc1OC(F)F (racemic) [Example 25 (racemic), 5-amino-N-(2-{[({2-chloro-6-[(difluoromethyl)oxy]phenyl}carbonyl)(ethyl)amino]methyl}-3,3,3-trifluoro-2-hydroxypropyl)-1-(4-fluorophenyl)-1H-pyrazole-4-carboxamide] | > 85 | ≤ 316 | > 1000
3 | CCN(CC(O)(CNC(=O)c1cnn(-c2ccc(F)cc2)c1N)C(F)(F)F)C(=O)c1c(OC(F)F)cccc1OC(F)F (racemic) [Example 26 (racemic), 5-amino-N-(2-{[({2,6-bis[(difluoromethyl)oxy]phenyl}carbonyl)(ethyl)amino]methyl}-3,3,3-trifluoro-2-hydroxypropyl)-1-(4-fluorophenyl)-1H-pyrazole-4-carboxamide] | > 85 | ≤ 316 | > 1000
4 | CCN(CC(O)(CNC(=O)c1cnn(-c2ccc(F)cc2)c1N)C(F)(F)F)C(=O)c1c(C(F)(F)F)cccc1C(F)(F)F (racemic) [Example 27 (racemic), 5-amino-N-(2-{[{[2,6-bis(trifluoromethyl)phenyl]carbonyl}(ethyl)amino]methyl}-3,3,3-trifluoro-2-hydroxypropyl)-1-(4-fluorophenyl)-1H-pyrazole-4-carboxamide] | > 85 | ≤ 316 | > 1000
5 | Nc1c(C(=O)NCC(O)(CN(CCF)C(=O)c2c(Cl)cccc2Cl)C(F)(F)F)cnn1-c1ccc(F)cc1 (racemic) [Example 28 (racemic), 5-amino-N-(2-{[[(2,6-dichlorophenyl)carbonyl](2-fluoroethyl)amino]methyl}-3,3,3-trifluoro-2-hydroxypropyl)-1-(4-fluorophenyl)-1H-pyrazole-4-carboxamide] | > 85 | ≤ 316 | > 1000
6 | Nc1c(C(=O)NCC(O)(CN(CCF)C(=O)c2c(Cl)cccc2Br)C(F)(F)F)cnn1-c1ccc(F)cc1 (racemic) [Example 30 (racemic), 5-amino-N-(2-{[[(2-bromo-6-chlorophenyl)carbonyl](2-fluoroethyl)amino]methyl}-3,3,3-trifluoro-2-hydroxypropyl)-1-(4-fluorophenyl)-1H-pyrazole-4-carboxamide] | > 85 | ≤ 316 | > 1000
7 | Nc1c(C(=O)NCC(O)(CN(CCF)C(=O)c2c(Cl)cccc2OC(F)F)C(F)(F)F)cnn1-c1ccc(F)cc1 (racemic) [Example 31 (racemic), 5-amino-N-(2-{[({2-chloro-6-[(difluoromethyl)oxy]phenyl}carbonyl)(2-fluoroethyl)amino]methyl}-3,3,3-trifluoro-2-hydroxypropyl)-1-(4-fluorophenyl)-1H-pyrazole-4-carboxamide] | > 85 | ≤ 316 | > 1000
8 | CCN(CC(O)(CNC(=O)c1cnn(-c2ccc(F)c(F)c2)c1N)C(F)(F)F)C(=O)c1c(F)cccc1F (racemic) [Example 33 (racemic), 5-amino-1-(3,4-difluorophenyl)-N-(2-{[[(2,6-difluorophenyl)carbonyl](ethyl)amino]methyl}-3,3,3-trifluoro-2-hydroxypropyl)-1H-pyrazole-4-carboxamide] | > 85 | ≤ 316 | > 1000

Source: patent US8247377B2, “Non-steroidal glucocorticoid inhibitors and their use in treating inflammation, allergy and auto-immune conditions” (Glaxo Group Limited, priority 2006, dated 2012)
